The test system of one test is E.coli LPS induced shock. The note with it: Fig 1. The procedure:
In a first experiment outbred mice were divided into groups and received treatment either with a hamster anti-murine TNF antibody TN3 19.12 or with the xanthine derivative, pentoxifylline.
Each group of animals received 60mg/kg E.coli LPS by intravenous injection into a tail vein.
Those groups of animals treated with TN3 19.12 received between 0.1 and 30mg/kg of the antibody by intravenous injection of 0.1ml of liquid into the tail vein 2 hours before LPS administration.
Those groups to be treated with pentoxifylline received between 1mg/kg and 300mg/kg intravenously five minutes prior to LPS administration.
In control experiments animals received an injection of an equivalent volume of saline.
The groups received one of three different treatment as follows: • A) Control - received 60mg/kg E.coli LPS intravenously followed by saline injection; • B) Received 1mg/kg TN3 19.12 i.v. 2 hrs prior to challenge with 60mg/kg E.coli LPS i.v. and 1mg/kg pentoxifylline i.v. 5 mins prior to challenge; • C) As B) but these mice also received repeat doses of 1mg/kg pentoxifylline 24,48 and 72 hours after LPS challenge.

Test [1] has as its system Salmonella abortus equi LPS induced shock. Description: Salmonella abortus equi LPS induced shock model in galactosamine sensitised mice (inhibition of mortality). It is filed as in vivo, C57BL mice. The note with it: 100mg/kg pentoxifylline alone; Fig 5. The procedure: Similar experiments to those described above were carried out in galactosamine sensitised C57BL mice which were challenged with LPS from Salmonella abortus equi. Mortality was measured 96 hrs after the LPS challenge.

Molecules are shown by their SMILES. Like-named read-outs stand apart in the source and are kept apart here.

As for `CC(=O)CCCCn1c(=O)c2c(ncn2C)n(C)c1=O` [pentoxifylline, 3,7-dimethyl-1-(5-oxohexyl)xanthine], the “effect on mortality (mean deaths per experiment)” value with E.coli LPS induced shock (pentoxifylline alone 1mg/kg i.v. five minutes prior to 60mg/kg E.coli LPS i.v.) is recorded as “no effect”; in the test on E.coli LPS induced shock (pentoxifylline alone at higher doses than 1mg/kg (up to 300mg/kg) i.v. five minutes prior to LPS), “accelerated mortality”. For the same compound, the “protective effect (mortality)” value in test [1] is reported as “no protective effect”.
